Here are results for six molecules from patent US8618300B2, “Indolizine inhibitors of leukotriene production” (Boehringer Ingelheim International GmbH, priority 2008, dated 2013).

One assay concerns human glomerulonephritis. The conditions noted are these: clinical trial; cited from earlier work.
Assay [1] relates to apoE/LDL-R double knockout mice. The conditions noted are these: oral dosing, high-fat diet from 2 months of age to 6 months; cited from earlier work.
Assay [2] relates to ApoE^−/−×CD4 dnTβRII mice. The following applies: infusion, treated for four weeks after 12 weeks plaque growth; cited from earlier work.
The subject of assay [3] is biomarkers for myocardial infarction risk. The conditions noted are these: clinical trials; cited from earlier work.
Assay [4] addresses T1, recombinant human FLAP protein (Homo sapiens, UniProt P20292).
T1 construct: made in house; host or cells: Sf9 insect cells (100,000 x g membrane pellet)
T1 sequence (P20292 1-161): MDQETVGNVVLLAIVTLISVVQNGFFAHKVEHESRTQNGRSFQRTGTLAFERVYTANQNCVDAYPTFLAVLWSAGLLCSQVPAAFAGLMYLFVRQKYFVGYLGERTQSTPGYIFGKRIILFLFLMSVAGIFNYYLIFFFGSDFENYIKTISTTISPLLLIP
In words: FLAP binding assay, Scintillation Proximity Assay, displacement of [125I]L-691,831. The following applies: read-out: hFLAP binding IC50. On the procedure:
Compounds are assessed for the ability to bind to FLAP in a binding assay that measures compound-specific displacement of an iodinated (^1251) FLAP inhibitor via a Scintillation Proximity Assay format (adapted from S. Charleson et al., Mol. Pharmacol., 1992, 41, 873-879).
Cell pellets produced from sf9 insect cells expressing recombinant human FLAP protein are resuspended in buffer A [15 mM Tris-HCl (pH 7.5), 2 mM MgCl2, 0.3 mM EDTA, 1 mM PMSF]. The cells are lysed with a Dounce homogenizer and the material is centrifuged at 10,000×g for 10 minutes. The supernatant is then collected and centrifuged at 100,000×g for 60 minutes. To prepare membrane protein for an assay, an aliquot of the 100,000×g pellet is resuspended in 1 ml of buffer A, Dounce homogenized, and finally subjected to polytron mixing (30 seconds). Membrane protein (25 μl, 5 μg) is mixed with WGA SPA beads (Amersham) and stirred for 1 h. To an assay plate (Perkin Elmer FlexiPlate) is added 25 μl of test compound prepared in Binding buffer [100 mM Tris (pH 7.5), 140 mM NaCl, 5% glycerol, 2 mM EDTA, 0.5 mM TCEP, 0.05% Tween 20], 25 μl of [^125I]L-691,831 (an iodinated analog of MK-591, Charleson et al. Mol. Pharmacol., 41, 873-879, 1992) and finally 50 μl of the bead/protein mixture. (final concentrations: beads, 200 μg/well; protein, 5 μg/well; [^125I] probe, 0 08 nM/well (17 nCi/well). The plates are shaken for 2 h before reading on a Microbeta plate reader. Non-specific binding is determined by the addition of 10 μM cold L-691,831 compound.
(In general: SPA uses beads or plates that emit light when radiolabelled molecules are held near them.)

`CC(C)(C)Sc1c(CC(C)(C)C(=O)O)n(Cc2ccc(Cl)cc2)c2ccc(OCc3ccc4ccccc4n3)cc12` [MK-591]: the effect on proteinuria entry in the assay on human glomerulonephritis is listed as “useful for reducing proteinuria”.

Take `CC(C)c1ccc2c(c1)c(SC(C)(C)C)c(CC(C)(C)C(=O)O)n2Cc1ccc(Cl)cc1` [MK-886]: in assay [1], the “decrease in plaque coverage in the aorta” value is recorded as 56% and the “decrease in plaque coverage in the aortic root” value is given as 43%. Further, in assay [2], the “decrease in plaque area in the aortic root” value is approximately 40%. With `O=C(O)[C@@H](c1ccc(OCc2ccc3ccccc3n2)cc1)C1CCCC1` [DG-031], the “effect on biomarkers for myocardial infarction risk” value in assay [3] is given as “dose-dependent suppression of biomarkers”. As a reminder, the IC50 is the concentration at which inhibition is half-maximal. Take `CCCC(Cc1c(C(=O)C(C)(C)C)c2cc(OCc3cccc(C)n3)ccn2c1C(=O)c1ccc(Cl)c(C)c1)C(=O)O` (centres unmarked) [2-({3-[(4-chloro-3-methylphenyl)carbonyl]-1-(2,2-dimethylpropanoyl)-7-[(6-methylpyridin-2-yl)methoxy]indolizin-2-yl}methyl)pentanoic acid]: the half-inhibitory concentration (IC50) in assay [4] stood at 3 nM. Take `CC(C)c1ccn2c(C(=O)N(C)c3ccc(Br)cc3)c(CC(C)(C)C(=O)O)c(C(=O)C(C)(C)C)c2c1` [3-{3-[(4-bromophenyl)(methyl)carbamoyl]-1-(2,2-dimethylpropanoyl)-7-(propan-2-yl)indolizin-2-yl}-2,2-dimethylpropanoic acid]: the IC50 in assay [4] is 156 nM. `COc1ccc(C(=O)c2c(C[C@@H](C(=O)O)C(C)C)c(C(=O)C(C)(C)C)c3cc(OCc4csc(C)n4)ccn23)cc1` [(2R)-2-({1-(2,2-dimethylpropanoyl)-3-[(4-methoxyphenyl)carbonyl]-7-[(2-methyl-1,3-thiazol-4-yl)methoxy]indolizin-2-yl}methyl)-3-methylbutanoic acid]: the IC50 in assay [4] stood at 7 nM.
